Laboratory results reported in patent publication US20250275978A1 (Cardiff Oncology, Inc., priority 2024, published 2025).
Several values for one entry are separate records, joined by “and”; a condition that tells them apart may be missing. Identical values can stand only once.

Assays:
[1] = tested on: patients with advanced/metastatic solid tumors; conditions: cited from earlier work
[2] = biological target: T1, CYP1A2 (Homo sapiens, UniProt P05177); conditions: human liver microsomes; cited from earlier work
T1 construct: was investigated using human liver microsomes; from tissue; host or cells: human liver microsomes
T1 sequence (P05177 1-516): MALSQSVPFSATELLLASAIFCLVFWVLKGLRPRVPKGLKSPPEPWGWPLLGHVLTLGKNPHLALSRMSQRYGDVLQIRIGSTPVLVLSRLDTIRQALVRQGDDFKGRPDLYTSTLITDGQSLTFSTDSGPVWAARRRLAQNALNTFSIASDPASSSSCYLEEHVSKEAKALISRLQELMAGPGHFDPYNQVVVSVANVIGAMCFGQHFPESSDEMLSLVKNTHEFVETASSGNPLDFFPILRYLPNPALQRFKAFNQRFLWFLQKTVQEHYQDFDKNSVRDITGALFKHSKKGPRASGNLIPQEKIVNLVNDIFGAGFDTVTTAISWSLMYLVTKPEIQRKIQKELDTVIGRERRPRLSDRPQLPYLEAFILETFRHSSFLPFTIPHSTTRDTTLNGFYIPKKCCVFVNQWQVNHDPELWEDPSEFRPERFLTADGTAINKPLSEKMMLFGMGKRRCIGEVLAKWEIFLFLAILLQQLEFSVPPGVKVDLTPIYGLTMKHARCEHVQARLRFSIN

[3] = rodent and nonrodent species; cited from earlier work
[4] = tested on: cell lines, both from solid as well as hematologic tumors; conditions: large number of cell lines; cited from earlier work
[5] = tested on: panel of 63 kinases; conditions: low or no activity; cited from earlier work
[6] = tested on: AML cell lines; conditions: cited from earlier work
[7] = tested on: RAS^WT CRC patient-derived xenograft (PDX) models; assay: Example 1: antitumor activity in RAS^WT CRC PDX models, 18 days; assay type: in vivo, nude mice
Procedure: Twenty RAS^WT CRC PDXs were selected and engrafted in nude mice. […] Tumor volume change from baseline (TVC) was calculated as 100%×(Vt−Vo)/Vo and tumor growth inhibition (TGI) as 100%×(TVCcontrol−TVCtreated)/TVCcontrol. Tumor regression was defined as TVCD18<0 and tumor stasis […].

[8] = tested on: RAS^WT colorectal cancer patient derived xenograft (PDX) models; assay: Example 2: antitumor activity in RAS^WT CRC PDX models, 18-19 days; assay type: in vivo, mice
Procedure: Tumor volumes (TV) were measured twice a week, and % tumor volume change (TVC) from baseline was calculated as follows: (TVi/TV0−1)×100. Tumor stasis defined as TVC between 0 and 20%, and tumor regression as TVC less than 0% at last measurement. Results are presented as mean±SEM.

[9] = mice; cited from earlier work
[10] = tested on: panel of 296 kinases, including other PLK members; conditions: cited from earlier work
[11] = 6 PDXs with acquired resistance to cetuximab
[12] = 7 PDXs with intrinsic resistance to cetuximab

CN1CCN(c2ccc(OC(F)(F)F)c(Nc3ncc4c(n3)-c3c(c(C(N)=O)nn3CCO)CC4)c2)CC1 [onvansertib, 1-(2-hydroxyethyl)-8-{[5-(4-methylpiperazin-1-yl)-2-(trifluoromethoxy)phenyl]amino}-4,5-dihydro-1H-pyrazolo[4,3-h]quinazoline-3-carboxamide]
DLTs observed ([1]; 36 mg/m^2/day, 4 patients treated): 2 DLTs
patients who developed DLTs ([1]; 48 mg/m^2/day): 2 of 3
DLTs at the first 3 dose levels ([1]; 6, 12, and 24 mg/m^2/day): No DLTs
best observed treatment response ([1]; in vivo): stable disease (SD)
maximum tolerated dose (MTD) ([1]; oral, 5 consecutive days every 3 weeks): 24 mg/m^2/day
recovery from hematologic toxicities ([1]; reversible toxicities): ≤ 3 weeks
Inhibitory effects against CYP1A2 [2]: No significant inhibitory effects
oral bioavailability [3]: good oral bioavailability
Activity in proliferation assays [4]: low nanomolar activity
IC50 [5]: > 500 nM
Inhibition of cell proliferation [6]: nanomolar concentrations
PDXs with potent anti-tumor activity (tumor regression or tumor stasis) ([7]; 20 PDXs, stasis 0≤TVCD18<100, 85%): 17 out of 20
median TGI on Day 18 ([7]; CetuxR PDXs, IQR 74-124): 108
median TGI on Day 18 ([7]; CetuxS PDXs, IQR 76-103): 102
PDXs with tumor regression (TVCD18<0) ([7]; all 20 PDXs, Day 18): 11 PDXs
PDXs with tumor stasis (0≤TVCD18<100) ([7]; all 20 PDXs, Day 18): 6 PDXs
models with tumor growth inhibition [8, 11]: one
models with tumor stasis or regression [8, 11]: 4/6
models with tumor growth inhibition ([8]; 7 PDXs sensitive to cetuximab): two
models with tumor stasis or regression ([8]; 7 PDXs sensitive to cetuximab, stasis TVC 0-20%): five and 5/7
models with tumor growth inhibition [8, 12]: two
models with tumor stasis or regression [8, 12]: 5/7
models with potent antitumor activity ([8]; 13 PDX models resistant to cetuximab, 69%): 9/13
models with tumor regression ([8]; all 20 models): 11 models
models with tumor stasis ([8]; all 20 models, TVC between 0 and 20%): 3 models
concentrations relevant to achieve significant anti-tumoral activity [9]: ~1 µM
Specificity for PLK1 among a panel of 296 kinases [10]: high specificity
